In PubChem BioAssay (NCI) one finds TGI and GI50 data, which are given here for 15 compounds.

Experiment in all cases: growth of human tumour cells (NCI), 48 h
In test [1] the test system is SN12C renal.
Test [2] relates to HT29 colon.
Test [3] deals with IGROV1 ovarian.
Test [4] relates to 786-0 renal.
Test [5] deals with XF 498 CNS.
Test [6] has as its system M19-MEL melanoma.
Test [7] has as its system HCT-116 colon.
The subject of test [8] is KM20L2 colon.
Test [9] concerns BT-549 breast.
The subject of test [10] is MDA-MB-435.

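A five-concentration, 48-hour dose response in 96-well plates underlies each endpoint, interpolated linearly between surrounding concentrations. The concentration for 50% growth inhibition is given as GI50. Definition used: TGI = concentration required for complete inhibition of growth.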

Regarding `O=C1CC2=CCCC2O1` (centres undefined), the TGI in test [1], in test [2], in test [3], in [4], in [5] and in [6] was above 100 µM throughout. In test [7], this compound came in with a TGI above 100 µM.
Regarding `CCOC(=O)N1C/C(=C\c2ccc(N(C)C)cc2)C(=O)/C(=C/c2ccc(N(C)C)cc2)C1`, the TGI in [1], in test [2], in [3], in [4], in test [6] and in test [7] was above 100 µM in each case. Moreover, the TGI in test [8] is above 100 µM.
For `CC[P+](C)(C)CC`, the TGI in test [1], in test [2], in test [3], in test [4], in test [6] and in test [7] was above 100 µM each time. The TGI in [8] was above 100 µM.
Regarding `CCCOC(=O)C1C(c2ccc(OC)cc2)NC(c2ccc(OC)cc2)C(C(=O)OCCC)S1(=O)=O` (centres undefined), the GI50 in test [1] is above 100000 nM; in test [2], above 100000 nM; in test [3], above 100 µM; in [4], above 100000 nM; in [7] it was above 100000 nM; in test [8], above 100 µM. For the same compound, the TGI in [1], in test [2], in test [3], in [4], in test [7] and in [8] was above 100 µM in each case.
`COc1ccc(C)cc1-c1ccc(-c2cc(C)ccc2OC)o1`: the TGI in test [1], in test [2], in test [3], in test [4], in test [6] and in [7] was above 100 µM in each case. The TGI in test [8] was above 100 µM.
For `Oc1ccc(Br)cc1C=Nc1ccc(Oc2ccc(N=Cc3cc(Br)ccc3O)cc2)cc1`, the TGI in [1], in [2], in test [3], in [4], in [6] and in [7] was above 19.6 µM in each case. Also, the TGI in test [8] was above 19.6 µM.
Consider `O=S(=O)(c1ccccc1)C1(C2(S(=O)(=O)c3ccccc3)CCN=N2)CCN=N1` (centres undefined), for which the TGI in [1], in test [2], in [3], in test [4], in test [5] and in [6] was above 100 µM each time. The compound also returned a TGI in test [7] above 100 µM.
As to `CCN(CC)CCNc1ccc2nc(C)n3c4ccc(OC)cc4c(=O)c1c23`, the TGI amounted to 15.2 µM in [1]; 1.99 µM in test [2]; 4.26 µM in test [3]; 7.88 µM in test [4]; 19.5 µM in test [6]; 6 µM in [7]. The TGI in test [9] stood at 22.5 µM; in [10], 27.1 µM.
On to `O=[N+]([O-])C(=C1c2ccccc2-c2ccccc21)[N+](=O)[O-]`, for which the TGI in test [1], in test [2], in [3], in test [4], in [7] and in test [8] was above 100 µM each time.
As for `COc1cc(/C=C2\CC3C4CC=C5C[C@@H](N6CCCC6)CC[C@]5(C)C4CC[C@]3(C)[C@H]2OC(C)=O)ccc1OCCCn1ccnc1` (some centres undefined), the GI50 in test [1] is 1240 nM; in [2], 162 nM; in test [3], 8.12 µM; in test [4], 369 nM; in test [7], 93.8 nM; in test [9] it was 2190 nM. Moreover, the GI50 in test [10] was 912 nM. Besides, the TGI in test [1] is 9.77 µM; in test [2], above 50 µM; in [3], above 50 µM; in test [4], 1.38 µM; in test [7], 1.52 µM; in [9], 9.72 µM. The same compound gave a TGI in [10] of 1.68 µM.
For `CC1=C(C(=O)Nc2cc(F)c(F)cc2F)C(c2ccc(N(C)C)cc2)C(C(=O)Nc2cc(F)c(F)cc2F)=C(C)N1`, the TGI in test [1] was above 100 µM; in [2], above 91.3 µM; in test [3], above 100 µM; in test [4], above 100 µM; in [6], above 100 µM; in test [7], above 100 µM. The TGI in test [8] and in test [10] was above 100 µM each time. Further, the results for the GI50 in test [7] and in [10] were 30400 nM and 41700 nM, respectively.
In the case of `Cc1ccc(S(=O)(=O)NC(=O)Nc2ncn[nH]2)cc1`, the TGI in test [1], in test [2], in [3], in [4], in test [7] and in [9] was above 100 µM throughout. This compound also registered a TGI in test [10] above 100 µM.
Regarding `COC(=O)c1cc2c3cc(Cl)ccc3[nH]c2c2ncccc12`, the GI50 was above 100000 nM in [1]; above 100000 nM in test [2]; 77.4 µM in test [3]; above 100000 nM in test [4]; above 100000 nM in test [7]; above 100000 nM in [9]. For the same compound, the GI50 in test [10] is above 100000 nM. For the same compound, the TGI in test [1], in test [2], in test [3], in [4], in test [7] and in test [9] was above 100 µM in each case. Besides, in test [10], the TGI was above 100 µM.
In the case of `C=CC(=O)N1CCN(c2nc(OC[C@@H]3CCCN3C)nc3c(F)c(-c4nc(N)cc(C)c4C(F)(F)F)c(Cl)cc23)[C@@H](C)C1`, the GI50 in test [1] is 1600 nM; in test [2] it was 2610 nM; in test [3], 1.7 µM; in [4], 3600 nM; in test [7] it was 2040 nM; in test [9], 1710 nM. In addition, the GI50 in [10] is 2090 nM. The TGI turned out to be 3.62 µM in [1]; 9.8 µM in [2]; 3.54 µM in [3]; 15.3 µM in [4]; 5.39 µM in [7]; 3.32 µM in test [9]. The compound further showed a TGI in test [10] of 4.65 µM.
For `CC(C)C[C@H](NC(=O)[C@@H](N)Cc1cccc2ccccc12)B(O)O`, the GI50 was 1390 nM in test [1]; 216 nM in [2]; 0.836 µM in test [3]; 207 nM in [4]; 138 nM in [7]; 870 nM in test [9]. In addition, in test [10], the GI50 is 114 nM.
